From US10501456B2, “Therapeutic agents for the treatment of HBV infection” (Newave Pharmaceutical Inc., priority 2016, dated 2019)
pEC50: −log10 of the molar value. Counter-ions that a name gives are not always drawn.

Columns and labels:
Rat PK study = assay type: in vivo, female Sprague-Dawley rats; conditions: for AUC(0-t) / Cmax / bioavailability / half-life: female, Sprague-Dawley, plasma, oral dosing; for half-life: read-out: t½ (converted)
Method: The pharmacokinetics of compounds were evaluated in female Sprague-Dawley rats via Intravenous and Oral Administration. The iv dose was administered as a slow bolus in the Jugular vein, and oral doses were administered by gavage. The fomulaltion for IV dosing is 20% DMSO and 60% PEG 400 in water, and the PO formulation (suspension) is 1% MC, 0.4% Kolliphor EL in water. The PK time point for the IV arm is 5, 15, 30 min, 1, 2, 4, 6, 8, 12, 24 hours post dose, and for PO arm is 15, 30 min, 1, 2, 4, 6, 8, 12, 24 hours post dose. Approximately 0.2 mL blood will be collected at each time point. Blood of each sample will be transferred into plastic micro centrifuge tubes containing EDTA-K2 and collect plasma within 15 min by centrifugation at 4000 g for 5 minutes in a 4° C. centrifuge. Plasma samples will be stored in polypropylene tubes. The samples will be stored in a freezer at −75±15° C. prior to analysis. Concentrations of compounds in the plasma samples will be analyzed using a LC-MS/MS method. WinNonlin (Phoenix™, version 6.1) or other similar software will be used for pharmacokinetic calculations. The following pharmacokinetic parameters will be calculated, whenever possible from the plasma concentration versus time data: IV administration: C0, CL, Vd, T1/2, AUCinf, AUClast, MRT, Number of Points for Regression; PO administration: Cmax, Tmax, T1/2, AUCinf, AUClast, F %, Number of Points for Regression. The pharmacokinetic data will be described using descriptive statistics such as mean, standard deviation. Additional pharmacokinetic or statistical analysis may be performed at the discretion of the contributing scientist, and will be documented in the data summary

HepG2.2.15 cells = assay: Compound cytotoxicity assay (CellTiter-Glo); assay type: cell-based; conditions: compared with Compound 203 in WO2015113990
Method: (§1) Compounds are diluted with DMSO in 3-fold, 11-point scheme: top conc. of test compound is 30 mM. Add 0.25 μL titrated compounds with Echo 550 to 384-well cytotoxicity assay plates. Add 50 μl HepG2.2.15 cells to each well (4,000 cells per well). The final top conc. is 150 μM after cell addition. For solvent control well (0% effect, ZPE), 0.25 μL DMSO is added (final DMSO conc. is 0.5%). Incubate for 4 days in 37⊏ C, 5% CO2 incubator. After
(§2) 4 day incubation compound cytotoxicity is measured by Promega CellTiter-Glo reagents, briefly: • Equilibrate the Celltiter-Glo reagent to room temperature • Equilibrate the cytotoxicity plates to RT for 20 minutes. • Add 50 μl of CellTiter-Glo Reagent to each well. • Shake 2 minutes on a shaker. • Incubate at room temperature in dark for 10 minutes. • Read plate on Envision Plate reader (0.1 sec integration time/well)
(§3) Such assays, carried out with a range of doses of test compounds, allow the determination of the cellular IC50 of the compounds of the present invention.

[1] = Compound cytotoxicity assay (CellTiter-Glo); assay type: cell-based; conditions: human; HepG2.2.15 cells, 4 day incubation, top conc. 150 μM
Method: as §1, §2, §3

extracellular HBV DNA = assay: HBV DNA assay (real-time qPCR/TaqMan, HepG2.2.15 cells); assay type: cell-based; conditions: for pEC50: Hepatitis B virus, 144 h, six days, supernatant HBV DNA copy number, read-out: EC50 (reduction in HBV DNA levels)
Method: The assay employs real-time qPCR (TaqMan) to directly measure extracellular HBV DNA copy number. HepG2.2.15 cells were plated in 96-well microtiter plates. Only the interior wells were utilized to reduce “edge effects” observed during cell culture, the exterior wells were filled with complete medium to help minimize sample evaporation. On the following day, the HepG2.2.15 cells were washed and the medium was replaced with complete medium containing various concentrations of a test compound in triplicate. 3TC was used as the positive control, while media alone was added to cells as a negative control (virus control, VC). Three days later, the culture medium was replaced with fresh medium containing the appropriately diluted drug. Six days following the initial administration of the test compound, the cell culture supernatant was collected, treated with pronase and then used in a real-time qPCR/TaqMan assay to determine HBV DNA copy numbers. TDF (tenofovir disoproxil fumarate) is used as a positive control reference. Antiviral activity was calculated from the reduction in HBV DNA levels (IC50).

hERG = hERG (Homo sapiens, UniProt Q12809); assay: hERG assay (automated patch-clamp); assay type: biochemical; conditions: for IC10 (10% inhibitory concentration, hERG tail current): automated patch-clamp
Excerpt: The human ether-a-go-go related gene (hERG) encodes the inward rectifying voltage gated potassium channel in the heart (IKr) which is involved in cardiac repolarization. Inhibition of the hERG current causes QT interval prolongation resulting in potentially fatal ventricular tachyarrhythmia called Torsade de Pointes. A number of drugs have been withdrawn from late stage clinical trials due to these cardiotoxic effects, therefore it is important to identify inhibitors early in drug discovery.
The degree of inhibition (%) was obtained by measuring the tail current amplitude, which is induced by a one second test pulse to −40 mV after a two second pulse to +20 mV, before and after drug incubation (the difference current was normalized to control and multiplied by 100 to obtain the percent of inhibition). Concentration (log) response curves were fitted to a logistic equation (three parameters assuming complete block of the current at very high test compound concentrations) to generate estimates of the 10% inhibitory concentration (IC10). The concentration-response relationship of each compound was constructed from the percentage reductions of current amplitude by sequential concentrations.

Sequence of hERG (Q12809 whole entry): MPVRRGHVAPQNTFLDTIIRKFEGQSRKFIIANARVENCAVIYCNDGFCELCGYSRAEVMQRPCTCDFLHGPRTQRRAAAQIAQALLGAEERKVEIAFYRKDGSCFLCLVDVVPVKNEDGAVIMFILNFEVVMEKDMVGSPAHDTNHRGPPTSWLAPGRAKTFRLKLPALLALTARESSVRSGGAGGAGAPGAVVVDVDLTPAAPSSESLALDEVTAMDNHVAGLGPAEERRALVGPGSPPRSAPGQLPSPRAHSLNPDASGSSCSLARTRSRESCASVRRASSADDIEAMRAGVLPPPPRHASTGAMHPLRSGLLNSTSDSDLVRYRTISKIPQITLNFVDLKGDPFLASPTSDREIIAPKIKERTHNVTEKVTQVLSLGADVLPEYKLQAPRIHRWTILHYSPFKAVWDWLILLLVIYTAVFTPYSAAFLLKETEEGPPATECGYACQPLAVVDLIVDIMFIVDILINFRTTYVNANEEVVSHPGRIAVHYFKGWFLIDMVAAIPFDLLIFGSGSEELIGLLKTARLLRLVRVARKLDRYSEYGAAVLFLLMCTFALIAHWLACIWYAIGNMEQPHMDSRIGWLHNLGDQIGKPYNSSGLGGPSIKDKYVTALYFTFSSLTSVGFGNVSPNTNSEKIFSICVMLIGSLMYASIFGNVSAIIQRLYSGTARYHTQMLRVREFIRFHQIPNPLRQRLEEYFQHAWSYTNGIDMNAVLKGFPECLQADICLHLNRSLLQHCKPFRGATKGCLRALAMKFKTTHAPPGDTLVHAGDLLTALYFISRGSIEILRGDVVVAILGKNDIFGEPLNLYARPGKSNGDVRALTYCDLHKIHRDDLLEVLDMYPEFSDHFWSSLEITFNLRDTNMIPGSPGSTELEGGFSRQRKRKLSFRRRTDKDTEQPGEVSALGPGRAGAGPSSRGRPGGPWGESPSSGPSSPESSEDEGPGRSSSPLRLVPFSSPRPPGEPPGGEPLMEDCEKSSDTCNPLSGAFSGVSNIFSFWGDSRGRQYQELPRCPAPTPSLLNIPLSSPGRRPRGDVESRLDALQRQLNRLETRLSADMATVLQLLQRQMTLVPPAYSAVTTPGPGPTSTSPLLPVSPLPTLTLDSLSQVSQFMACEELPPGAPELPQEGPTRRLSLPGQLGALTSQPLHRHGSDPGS

| AUC(0-t) (Rat PK study; 10 mg/kg) [ng·h/mL] | bioavailability (Rat PK study; 10 mg/kg) [%] | SMILES | AUC(0-t) (Rat PK study; 20 mg/kg) [ng·h/mL] | Cmax (Rat PK study; 20 mg/kg) [ng/mL] | bioavailability (Rat PK study; 20 mg/kg) [%] | half-life (Rat PK study; 20 mg/kg) [min] | IC50 at 4 days [1] [µM] | pEC50 (extracellular HBV DNA) | IC10 (10% inhibitory concentration, hERG tail current) (hERG) [µM] | also measured |
| --- | --- | --- | --- | --- | --- | --- | --- | --- | --- | --- |
|  |  | COCCCOc1cc2c(cc1Cl)-c1c(F)c(=O)c(C(=O)O)cn1[C@H](C(C)(C)C)C2 (single isomer, unassigned) [Example 2A, (+)-6-(tert-butyl)-10-chloro-1-fluoro-9-(3-methoxypropoxy)-2-oxo-6,7-dihydro-2H-pyrido[2,1-a]isoquinoline-3-carboxylic acid] | 39600 | 7550 | 58.6 | 268 | > 150 | > 9.00 | 10 | oral PK profile (in words) (Rat PK study; oral dosing of 20 mg/kg, compared with Compound 203 in WO2015113990): better oral PK profile; cytotoxicity (in words) (HepG2.2.15 cells): less cytotoxicity; anti-HBV potency (in words) (extracellular HBV DNA; HBV DNA): highly potent; cardiac toxicity (in words) (hERG; hERG, compared with Compound 203 in WO2015113990): less cardiac toxicity |
|  |  | COCCCOc1cc2c(cc1Cl)-c1cc(=O)c(C(=O)O)cn1[C@H](C(C)(C)C)C2 [Compound 203 in WO2015113990, reference compound] | 16700 | 2470 | 40 | 224 | 120 | > 9.00 | 1 |  |
| 5840 | 24.1 | COCCCOc1cc2c(cc1OC)-c1c(F)c(=O)c(C(=O)O)cn1[C@H](C(C)(C)C)C2 [Example 13] |  |  |  |  |  |  |  |  |
| 9050 | 61.1 | [2H]C([2H])([2H])Oc1cc2c(cc1OCCCOC)C[C@@H](C(C)(C)C)n1cc(C(=O)O)c(=O)c(F)c1-2 [Example 14, (S)-6-(tert-butyl)-1-fluoro-10-(methoxy-d3)-9-(3-methoxypropoxy)-2-oxo-6,7-dihydro-2H-pyrido[2,1-a]isoquinoline-3-carboxylic acid] |  |  |  |  |  |  |  | oral PK profile (in words) (Rat PK study; oral dosing of 10 mg/kg, compared with Example 13): much better oral PK profile |
|  |  | CC(C)OC(=O)OCOP(=O)(CO[C@H](C)Cn1cnc2c(N)ncnc21)OCOC(=O)OC(C)C [Tenofovir Disoproxil Fumarate, tenofovir disoproxil fumarate, reference compound] |  |  |  |  |  | 7.53 |  |  |
